# Experimental data from article PMC9945734 (BMC Medicine, 2023).
# Read-outs that look alike come from different tables or passages of the source.
# Test system: PC-3-KQ cells
# Assay: 3D spheroid invasion assay and screening of FDA-approved drugs
# Format: cell-based, human
# Settings: for Invasion rates (%) of each drug’s multiple concentrations (μM) / activity at 0.01 µM / activity at 0.1 µM / activity at 1 µM / activity at 10 µM: compared to vehicle control; for activity at 0.01 µM / activity at 0.1 µM / activity at 1 µM / activity at 10 µM: 72 h
# Protocol: The invasion assay was performed as previously described. […] The plates were then centrifuged at 320 g for 4 min to cluster cells in the bottom of wells and incubated for 3 days. On the fourth day, 40 μL medium was removed from each well, 40 μL of the matrigel-medium mixture was added to each well, and cells were cultured for another 3 days. […] At the end of the incubation, images were taken using a phase contrast microscope (Eclipse Ti2, Nikon, Tokyo, Japan) with 10× object lenses, and the total area of cells and the core sphere area of cells (Fig. 1a) were measured using the Image J software. The invading area was calculated using the following formula: invasion area = total area of cells – core sphere area.
# For drug screening, drugs were added to the matrigel-medium mixture when replacing the culture medium on day 4. For the initial round of screening, a final concentration of 10 μM was used for all drugs. Multiple drug concentrations were used for the second round of screening, including 0, 0.001, 0.01, 0.1, 1, and 10 μM. Duplicate wells were repeated for each concentration.
# [1] = 0.01 μM (first column so headed), secondary screening of 87 hit compounds (Table S1)
# [2] = 0.01 μM (second column so headed), secondary screening of 87 hit compounds (Table S1)
# [3] = 0.1 μM, secondary screening of 87 hit compounds (Table S1)
# [4] = 1 μM, secondary screening of 87 hit compounds (Table S1)
# [5] = 10 μM, secondary screening of 87 hit compounds (Table S1)
# [6] = Homo sapiens, 0.01 μM (first column so headed), secondary screening of 87 hit compounds (Table S1), read-out: Invasion rates (%) of each drug’s multiple concentrations
# [7] = Homo sapiens, 0.01 μM (second column so headed), secondary screening of 87 hit compounds (Table S1), read-out: Invasion rates (%) of each drug’s multiple concentrations
# [8] = Homo sapiens, 0.1 μM, secondary screening of 87 hit compounds (Table S1), read-out: Invasion rates (%) of each drug’s multiple concentrations
# [9] = Homo sapiens, 1 μM, secondary screening of 87 hit compounds (Table S1), read-out: Invasion rates (%) of each drug’s multiple concentrations
# [10] = Homo sapiens, 10 μM, secondary screening of 87 hit compounds (Table S1), read-out: Invasion rates (%) of each drug’s multiple concentrations
# [11] = Homo sapiens, 0.01 μM (first column so headed), third screening of 25 hit compounds (Table S2), read-out: Invasion rates (%) of each drug’s multiple concentrations
# [12] = Homo sapiens, 0.01 μM (second column so headed), third screening of 25 hit compounds (Table S2), read-out: Invasion rates (%) of each drug’s multiple concentrations
# [13] = Homo sapiens, 0.1 μM, third screening of 25 hit compounds (Table S2), read-out: Invasion rates (%) of each drug’s multiple concentrations
# [14] = Homo sapiens, 1 μM, third screening of 25 hit compounds (Table S2), read-out: Invasion rates (%) of each drug’s multiple concentrations
# [15] = Homo sapiens, 10 μM, third screening of 25 hit compounds (Table S2), read-out: Invasion rates (%) of each drug’s multiple concentrations
# [16] = 0.01 μM (first column so headed), third screening of 25 hit compounds (Table S2)
# [17] = 0.01 μM (second column so headed), third screening of 25 hit compounds (Table S2)
# [18] = 0.1 μM, third screening of 25 hit compounds (Table S2)
# [19] = 1 μM, third screening of 25 hit compounds (Table S2)
# [20] = 10 μM, third screening of 25 hit compounds (Table S2)
compound,measurement,setting,value
CNC[C@H](O)c1cccc(O)c1.Cl [(R)-(-)-Phenylephrine (hydrochloride)],Invasion rates (%) of each drug’s multiple concentrations (μM),[1],103.19%
same,Invasion rates (%) of each drug’s multiple concentrations (μM),[2],103.23%
same,Invasion rates (%) of each drug’s multiple concentrations (μM),[3],98.23%
same,Invasion rates (%) of each drug’s multiple concentrations (μM),[4],96.01%
same,Invasion rates (%) of each drug’s multiple concentrations (μM),[5],4.27%
Nc1c2ccccc2nc2ccccc12 [9-Aminoacridine],activity at 0.01 µM,[6],96%
same,activity at 0.01 µM,[7],93.3%
same,activity at 0.1 µM,[8],94.7%
same,activity at 1 µM,[9],86.4%
same,activity at 10 µM,[10],1.63%
CC(=O)NC[C@H]1CN(c2ccc(N3CCOCC3)c(F)c2)C(=O)O1 [Linezolid],activity at 0.01 µM,[6],94.4%
same,activity at 0.01 µM,[7],96.6%
same,activity at 0.1 µM,[8],80%
same,activity at 1 µM,[9],64.5%
same,activity at 10 µM,[10],3.51%
CC1CS(=O)(=O)CCN1/N=C/c1ccc([N+](=O)[O-])o1 (centres unmarked) [Nifurtimox],activity at 0.01 µM,[6],96.2%
same,activity at 0.01 µM,[11],97%
same,activity at 0.01 µM,[7],96.2%
same,activity at 0.01 µM,[12],97.5%
same,activity at 0.1 µM,[8],78.6%
same,activity at 0.1 µM,[13],93.5%
same,activity at 1 µM,[9],32.4%
same,activity at 1 µM,[14],5.05%
same,activity at 10 µM,[10],1.95%
same,activity at 10 µM,[15],0.53%
CNc1ncc(-c2ccc3c(=O)c(C(=O)O)cn(C4CC4)c3c2C)cc1C [Ozenoxacin],Invasion rates (%) of each drug’s multiple concentrations (μM),[1],96.05%
same,Invasion rates (%) of each drug’s multiple concentrations (μM),[2],100.15%
same,Invasion rates (%) of each drug’s multiple concentrations (μM),[3],94.32%
same,Invasion rates (%) of each drug’s multiple concentrations (μM),[4],88.16%
same,Invasion rates (%) of each drug’s multiple concentrations (μM),[5],4.14%
COc1ccc2c(O[C@@H]3C[C@H]4C(=O)N[C@]5(C(=O)NS(=O)(=O)C6CC6)C[C@H]5/C=C\CCCCN(C)C(=O)[C@@H]4C3)cc(-c3nc(C(C)C)cs3)nc2c1C [Simeprevir],activity at 0.01 µM,[6],98.5%
same,activity at 0.01 µM,[7],101%
same,activity at 0.1 µM,[8],97.2%
same,activity at 1 µM,[9],96.2%
same,activity at 10 µM,[10],38.8%
CC/C(=C(\c1ccccc1)c1ccc(OCCN(C)C)cc1)c1ccccc1.O=C(O)CC(O)(CC(=O)O)C(=O)O [Tamoxifen (Citrate)],Invasion rates (%) of each drug’s multiple concentrations (μM),[1],94.34%
same,Invasion rates (%) of each drug’s multiple concentrations (μM),[2],97.97%
same,Invasion rates (%) of each drug’s multiple concentrations (μM),[3],91.22%
same,Invasion rates (%) of each drug’s multiple concentrations (μM),[4],85.65%
same,Invasion rates (%) of each drug’s multiple concentrations (μM),[5],1.00%
CC(=O)OC[C@H]1O[C@@H]([S-])[C@H](OC(C)=O)[C@@H](OC(C)=O)[C@@H]1OC(C)=O.CCP(CC)CC.[Au+] [Auranofin],Invasion rates (%) of each drug’s multiple concentrations (μM),[1],98.81%
same,Invasion rates (%) of each drug’s multiple concentrations (μM),[16],93.68%
same,Invasion rates (%) of each drug’s multiple concentrations (μM),[2],100.66%
same,Invasion rates (%) of each drug’s multiple concentrations (μM),[17],97.35%
same,Invasion rates (%) of each drug’s multiple concentrations (μM),[3],95.62%
same,Invasion rates (%) of each drug’s multiple concentrations (μM),[18],88.21%
same,Invasion rates (%) of each drug’s multiple concentrations (μM),[4],2.03%
same,Invasion rates (%) of each drug’s multiple concentrations (μM),[19],2.34%
same,Invasion rates (%) of each drug’s multiple concentrations (μM),[5],0.38%
same,Invasion rates (%) of each drug’s multiple concentrations (μM),[20],0.76%
Acetylspiramycin,Invasion rates (%) of each drug’s multiple concentrations (μM),[1],96.71%
same,Invasion rates (%) of each drug’s multiple concentrations (μM),[2],96.46%
same,Invasion rates (%) of each drug’s multiple concentrations (μM),[3],96.77%
same,Invasion rates (%) of each drug’s multiple concentrations (μM),[4],87.68%
same,Invasion rates (%) of each drug’s multiple concentrations (μM),[5],2.37%
Cc1ncc([N+](=O)[O-])n1C[C@@H](CN1CCOCC1)OP(=O)(O)O [Dextrorotation nimorazole phosphate ester],Invasion rates (%) of each drug’s multiple concentrations (μM),[1],97.64%
same,Invasion rates (%) of each drug’s multiple concentrations (μM),[2],99.79%
same,Invasion rates (%) of each drug’s multiple concentrations (μM),[3],97.40%
same,Invasion rates (%) of each drug’s multiple concentrations (μM),[4],85.31%
same,Invasion rates (%) of each drug’s multiple concentrations (μM),[5],35.28%
CC/C(=C(\c1ccccc1)c1ccc(OCCN(C)C)cc1)c1ccccc1 [Tamoxifen],activity at 0.01 µM,[6],96.2%
same,activity at 0.01 µM,[7],95.4%
same,activity at 0.1 µM,[8],97%
same,activity at 1 µM,[9],91.1%
same,activity at 10 µM,[10],24.3%
CNC[C@H](O)[C@@H](O)[C@H](O)[C@H](O)CO.Nc1nc(-n2cc(C(=O)O)c(=O)c3cc(F)c(N4CC(O)C4)c(Cl)c32)c(F)cc1F [Delafloxacin (meglumine)],Invasion rates (%) of each drug’s multiple concentrations (μM),[1],85.63%
same,Invasion rates (%) of each drug’s multiple concentrations (μM),[16],93.02%
same,Invasion rates (%) of each drug’s multiple concentrations (μM),[2],84.75%
same,Invasion rates (%) of each drug’s multiple concentrations (μM),[17],86.37%
same,Invasion rates (%) of each drug’s multiple concentrations (μM),[3],73.78%
same,Invasion rates (%) of each drug’s multiple concentrations (μM),[18],82.73%
same,Invasion rates (%) of each drug’s multiple concentrations (μM),[4],2.08%
same,Invasion rates (%) of each drug’s multiple concentrations (μM),[19],1.96%
same,Invasion rates (%) of each drug’s multiple concentrations (μM),[5],1.54%
same,Invasion rates (%) of each drug’s multiple concentrations (μM),[20],0.81%
COc1cc(Nc2c(C#N)cnc3cc(OCCCN4CCN(C)CC4)c(OC)cc23)c(Cl)cc1Cl [Bosutinib],activity at 0.01 µM,[6],90.7%
same,activity at 0.01 µM,[7],97.2%
same,activity at 0.1 µM,[8],87.3%
same,activity at 1 µM,[9],69.9%
same,activity at 10 µM,[10],10.1%
COc1cccc2c1C(=O)c1c(O)c3c(c(O)c1C2=O)C[C@@](O)(C(=O)CO)C[C@@H]3O[C@H]1C[C@H](N)[C@H](O[C@@H]2CCCCO2)[C@H](C)O1.Cl [Pirarubicin (Hydrochloride)],Invasion rates (%) of each drug’s multiple concentrations (μM),[1],87.28%
same,Invasion rates (%) of each drug’s multiple concentrations (μM),[2],91.46%
same,Invasion rates (%) of each drug’s multiple concentrations (μM),[3],86.00%
same,Invasion rates (%) of each drug’s multiple concentrations (μM),[4],81.69%
same,Invasion rates (%) of each drug’s multiple concentrations (μM),[5],10.50%
COc1cc2ncnc(Nc3ccc(F)c(Cl)c3)c2cc1OCCCN1CCOCC1 [Gefitinib],activity at 0.01 µM,[6],86.8%
same,activity at 0.01 µM,[7],85.3%
same,activity at 0.1 µM,[8],77.8%
same,activity at 1 µM,[9],60.2%
same,activity at 10 µM,[10],27.4%
CCN(CC)CCNC(=O)c1c(C)[nH]c(/C=C2\C(=O)Nc3ccc(F)cc32)c1C [Sunitinib],activity at 0.01 µM,[6],88.6%
same,activity at 0.01 µM,[7],94.9%
same,activity at 0.1 µM,[8],83.7%
same,activity at 1 µM,[9],61.1%
same,activity at 10 µM,[10],0.8%
CC[C@@]1(O)C(=O)OCc2c1cc1n(c2=O)Cc2cc3cc(O)ccc3nc2-1 [(S)-10-Hydroxycamptothecin],activity at 0.01 µM,"Homo sapiens, read-out: Invasion rates (%) of each drug’s multiple concentrations (μM), 0.01 μM (first column so headed), secondary screening of 87 hit compounds (Table S1)",93.7%
same,activity at 0.01 µM,"Homo sapiens, read-out: Invasion rates (%) of each drug’s multiple concentrations (μM), 0.01 μM (second column so headed), secondary screening of 87 hit compounds (Table S1)",98.2%
same,activity at 0.1 µM,"Homo sapiens, read-out: Invasion rates (%) of each drug’s multiple concentrations (μM), 0.1 μM, secondary screening of 87 hit compounds (Table S1)",85%
same,activity at 1 µM,"Homo sapiens, read-out: Invasion rates (%) of each drug’s multiple concentrations (μM), 1 μM, secondary screening of 87 hit compounds (Table S1)",89.9%
same,activity at 10 µM,"Homo sapiens, read-out: Invasion rates (%) of each drug’s multiple concentrations (μM), 10 μM, secondary screening of 87 hit compounds (Table S1)",85.1%
CO[C@@]12[C@H](COC(N)=O)C3=C(C(=O)C(C)=C(N)C3=O)N1C[C@@H]1N[C@@H]12 [Mitomycin C],activity at 0.01 µM,[6],4.12%
same,activity at 0.01 µM,[11],41.6%
same,activity at 0.01 µM,[7],39.7%
same,activity at 0.01 µM,[12],93.2%
same,activity at 0.1 µM,[8],4.9%
same,activity at 0.1 µM,[13],2.22%
same,activity at 1 µM,[9],3.56%
same,activity at 1 µM,[14],1.49%
same,activity at 10 µM,[10],2.5%
same,activity at 10 µM,[15],0.24%
same,inhibition at 0.1 µM,"Homo sapiens, at 0.1 μM, read-out: inhibition of cell invasion",> 50%
CS(=O)(=O)c1ccc([C@@H](O)[C@@H](CO)NC(=O)C(Cl)Cl)cc1 [Thiamphenicol],activity at 0.01 µM,[6],90.9%
same,activity at 0.01 µM,[7],92%
same,activity at 0.1 µM,[8],91.7%
same,activity at 1 µM,[9],71.5%
same,activity at 10 µM,[10],6.21%
